# Test results published in patent US10246426B2, “Triazole compounds as T-type calcium channel blockers” (IDORSIA PHARMACEUTICALS LTD, priority 2014, dated 2019).
# Biological target: Cav3.2 (Homo sapiens, UniProt O95180)
# Test: Calcium flux FLIPR assay, HEK293 cells recombinantly expressing Cav3.2
# Assay type: cell-based
# Conditions: Cav3.2-channel, Ca2+ entry stimulated by 10 mM CaCl2
# Procedure, shortened: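 Fluo-4-loaded HEK293 cells stably expressing Cav3.2, seeded overnight at 37 °C; compounds diluted in TEAC buffer (pH 7.2) and preincubated 3 min before Ca2+ entry triggered with CaCl2 at 10 mM final. Area under FLIPR fluorescence trace fitted sigmoidally; IC50 relative to vehicle signal.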
# Cav3.2, sequence (O95180 whole entry, looked up): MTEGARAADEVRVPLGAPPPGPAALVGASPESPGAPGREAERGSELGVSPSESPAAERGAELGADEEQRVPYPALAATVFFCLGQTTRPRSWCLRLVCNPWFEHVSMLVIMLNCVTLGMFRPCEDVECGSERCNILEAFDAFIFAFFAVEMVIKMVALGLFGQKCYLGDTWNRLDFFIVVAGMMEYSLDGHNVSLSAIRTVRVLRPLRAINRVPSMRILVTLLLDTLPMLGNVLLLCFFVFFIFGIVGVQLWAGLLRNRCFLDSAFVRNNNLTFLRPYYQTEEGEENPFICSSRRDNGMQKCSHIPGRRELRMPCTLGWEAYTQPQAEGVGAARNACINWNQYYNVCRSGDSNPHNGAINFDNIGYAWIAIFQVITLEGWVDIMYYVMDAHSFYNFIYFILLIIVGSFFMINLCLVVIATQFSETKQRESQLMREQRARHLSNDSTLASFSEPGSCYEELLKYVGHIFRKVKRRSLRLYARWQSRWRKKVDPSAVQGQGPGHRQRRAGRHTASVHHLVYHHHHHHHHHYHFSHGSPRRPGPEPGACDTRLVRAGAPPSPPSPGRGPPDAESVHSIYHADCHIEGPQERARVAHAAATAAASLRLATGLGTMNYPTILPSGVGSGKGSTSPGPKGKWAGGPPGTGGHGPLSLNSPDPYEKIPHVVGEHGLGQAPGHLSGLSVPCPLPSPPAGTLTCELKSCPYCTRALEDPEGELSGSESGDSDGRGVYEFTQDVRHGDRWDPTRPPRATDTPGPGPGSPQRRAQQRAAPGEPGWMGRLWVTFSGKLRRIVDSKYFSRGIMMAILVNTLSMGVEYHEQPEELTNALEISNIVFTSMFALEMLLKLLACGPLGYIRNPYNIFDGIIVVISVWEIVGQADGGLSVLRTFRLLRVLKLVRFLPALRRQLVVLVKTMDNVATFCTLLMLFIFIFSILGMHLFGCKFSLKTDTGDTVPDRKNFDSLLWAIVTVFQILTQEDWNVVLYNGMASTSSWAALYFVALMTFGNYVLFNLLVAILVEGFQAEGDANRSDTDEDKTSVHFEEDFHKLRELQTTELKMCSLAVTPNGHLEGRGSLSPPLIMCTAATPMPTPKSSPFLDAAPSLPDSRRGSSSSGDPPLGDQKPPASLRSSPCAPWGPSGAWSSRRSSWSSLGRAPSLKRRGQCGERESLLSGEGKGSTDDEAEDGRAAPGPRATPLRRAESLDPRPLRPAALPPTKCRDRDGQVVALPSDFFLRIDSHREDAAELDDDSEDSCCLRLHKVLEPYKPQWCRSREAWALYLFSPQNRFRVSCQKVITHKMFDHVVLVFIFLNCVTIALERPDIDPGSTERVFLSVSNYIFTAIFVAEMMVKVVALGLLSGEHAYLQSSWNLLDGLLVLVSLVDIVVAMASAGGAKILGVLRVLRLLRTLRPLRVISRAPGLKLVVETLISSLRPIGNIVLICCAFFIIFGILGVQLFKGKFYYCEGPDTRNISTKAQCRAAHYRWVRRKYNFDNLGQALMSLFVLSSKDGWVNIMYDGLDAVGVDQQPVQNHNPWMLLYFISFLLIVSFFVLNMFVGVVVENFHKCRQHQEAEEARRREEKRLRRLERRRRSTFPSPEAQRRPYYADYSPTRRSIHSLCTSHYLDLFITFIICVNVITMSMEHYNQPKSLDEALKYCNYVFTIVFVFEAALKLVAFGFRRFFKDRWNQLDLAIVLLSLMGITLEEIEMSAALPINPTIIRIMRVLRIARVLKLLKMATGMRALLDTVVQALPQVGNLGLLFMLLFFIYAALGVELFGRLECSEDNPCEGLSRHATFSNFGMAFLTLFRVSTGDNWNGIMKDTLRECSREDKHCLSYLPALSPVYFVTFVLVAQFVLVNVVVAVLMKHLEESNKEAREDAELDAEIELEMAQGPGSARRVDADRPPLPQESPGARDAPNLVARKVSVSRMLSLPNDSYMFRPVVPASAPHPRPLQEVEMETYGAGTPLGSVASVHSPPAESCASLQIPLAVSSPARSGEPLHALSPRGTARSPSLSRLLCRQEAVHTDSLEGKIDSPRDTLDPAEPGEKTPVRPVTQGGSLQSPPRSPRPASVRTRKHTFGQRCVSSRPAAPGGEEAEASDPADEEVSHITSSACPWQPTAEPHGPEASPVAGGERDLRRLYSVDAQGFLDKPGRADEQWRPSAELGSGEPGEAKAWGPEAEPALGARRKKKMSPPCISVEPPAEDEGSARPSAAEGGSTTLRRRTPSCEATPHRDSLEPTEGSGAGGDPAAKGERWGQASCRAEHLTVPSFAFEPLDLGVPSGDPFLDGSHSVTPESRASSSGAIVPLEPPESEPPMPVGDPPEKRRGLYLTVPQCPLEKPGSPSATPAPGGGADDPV
row,Compound,IC50 [nM]
1,"Cc1cn(C)c2cc(CC(=O)Nc3cnn(Cc4ccc(C#N)c(F)c4)n3)ccc12 [Example 105, N-[2-(4-Cyano-3-fluoro-benzyl)-2H-[1,2,3]triazol-4-yl]-2-(1,3-dimethyl-1H-indol-6-yl)-acetamide]",20
2,"Cc1cn(C)c2cc(CC(=O)Nc3cnn(Cc4ccc(C#N)cc4)n3)ccc12 [Example 106, N-[2-(4-Cyano-benzyl)-2H-[1,2,3]triazol-4-yl]-2-(1,3-dimethyl-1H-indol-6-yl)-acetamide]",36
3,"COc1cc(Cn2ncc(NC(=O)Cc3ccc(OCC4COC4)cc3)n2)ccc1F [Example 108, N-[2-(4-Fluoro-3-methoxy-benzyl)-2H-[1,2,3]triazol-4-yl]-2-[4-(oxetan-3-ylmethoxy)-phenyl]-acetamide]",300
4,"COc1cc(Cn2ncc(NC(=O)Cc3ccc4cnn(C)c4c3)n2)ccc1F [Example 109, N-[2-(4-Fluoro-3-methoxy-benzyl)-2H-[1,2,3]triazol-4-yl]-2-(1-methyl-1H-indazol-6-yl)-acetamide]",190
5,"COc1cc(Cn2ncc(NC(=O)Cc3ccc(C4(OC)COC4)cc3)n2)ccc1F [Example 110, N-[2-(4-Fluoro-3-methoxy-benzyl)-2H-[1,2,3]triazol-4-yl]-2-[4-(3-methoxy-oxetan-3-yl)-phenyl]-acetamide]",140
6,"COc1cc(Cn2ncc(NC(=O)Cc3ccc(OCC4CC(F)(F)C4)cc3)n2)ccc1F [Example 111, 2-[4-(3,3-Difluoro-cyclobutylmethoxy)-phenyl]-N-[2-(4-fluoro-3-methoxy-benzyl)-2H-[1,2,3]triazol-4-yl]-acetamide]",57
7,"COc1cc(Cn2ncc(NC(=O)Cc3ccc(OCC4(C)COC4)cc3)n2)ccc1F [Example 112, N-[2-(4-Fluoro-3-methoxy-benzyl)-2H-[1,2,3]triazol-4-yl]-2-[4-(3-methyl-oxetan-3-ylmethoxy)-phenyl]-acetamide]",190
8,"COc1cc(Cn2ncc(NC(=O)Cc3ccc(C4(C(F)(F)F)CC4)cc3)n2)ccc1F [Example 113, N-[2-(4-Fluoro-3-methoxy-benzyl)-2H-[1,2,3]triazol-4-yl]-2-[4-(1-trifluoromethyl-cyclopropyl)-phenyl]-acetamide]",230
9,COc1cc(Cn2ncc(NC(=O)Cc3ccc(OC4CC(F)(F)C4)cc3)n2)ccc1F [Example 114],73
10,"COc1cc(Cn2ncc(NC(=O)Cc3ccc(N4CCC(F)(F)C4)nc3)n2)ccc1F [Example 115, 2-[6-(3,3-Difluoro-pyrrolidin-1-yl)-pyridin-3-yl]-N-[2-(4-fluoro-3-methoxy-benzyl)-2H-[1,2,3]triazol-4-yl]-acetamide]",45
11,"COc1cc(Cn2ncc(NC(=O)Cc3ccc(C4(F)COC4)cc3)n2)ccc1F [Example 116, N-[2-(4-Fluoro-3-methoxy-benzyl)-2H-[1,2,3]triazol-4-yl]-2-[4-(3-fluoro-oxetan-3-yl)-phenyl]-acetamide]",140
12,"CCn1ncc2cc(CC(=O)Nc3cnn(Cc4ccc(F)c(OC)c4)n3)ccc21 [Example 117, 2-(1-Ethyl-1H-indazol-5-yl)-N-[2-(4-fluoro-3-methoxy-benzyl)-2H-[1,2,3]triazol-4-yl]-acetamide]",80
13,"COc1cc(Cn2ncc(NC(=O)Cc3ccc4c(c3)c(C)cn4C)n2)ccc1F [Example 118, 2-(1,3-Dimethyl-1H-indol-5-yl)-N-[2-(4-fluoro-3-methoxy-benzyl)-2H-[1,2,3]triazol-4-yl]-acetamide]",63
14,"COc1cc(Cn2ncc(NC(=O)Cc3ccc(C(C)(C)C)cc3)n2)ccc1F [Example 119, 2-(4-tert-Butyl-phenyl)-N-[2-(4-fluoro-3-methoxy-benzyl)-2H-[1,2,3]triazol-4-yl]-acetamide]",62
15,"COc1ccc(Cn2ncc(NC(=O)Cc3ccc(OCC4COC4)cc3)n2)cc1F [Example 120, N-[2-(3-Fluoro-4-methoxy-benzyl)-2H-[1,2,3]triazol-4-yl]-2-[4-(oxetan-3-ylmethoxy)-phenyl]-acetamide]",550
16,"COc1ccc(Cn2ncc(NC(=O)Cc3ccc4cnn(C)c4c3)n2)cc1F [Example 121, N-[2-(3-Fluoro-4-methoxy-benzyl)-2H-[1,2,3]triazol-4-yl]-2-(1-methyl-1H-indazol-6-yl)-acetamide]",290
17,"COc1ccc(Cn2ncc(NC(=O)Cc3ccc(C4(OC)COC4)cc3)n2)cc1F [Example 122, N-[2-(3-Fluoro-4-methoxy-benzyl)-2H-[1,2,3]triazol-4-yl]-2-[4-(3-methoxy-oxetan-3-yl)-phenyl]-acetamide]",360
18,"COc1ccc(Cn2ncc(NC(=O)Cc3ccc(OCC4(C)COC4)cc3)n2)cc1F [Example 123, N-[2-(3-Fluoro-4-methoxy-benzyl)-2H-[1,2,3]triazol-4-yl]-2-[4-(3-methyl-oxetan-3-ylmethoxy)-phenyl]-acetamide]",870
19,"COc1ccc(Cn2ncc(NC(=O)Cc3ccc(OC4CC(F)(F)C4)cc3)n2)cc1F [Example 125, 2-[4-(3,3-Difluoro-cyclobutoxy)-phenyl]-N-[2-(3-fluoro-4-methoxy-benzyl)-2H-[1,2,3]triazol-4-yl]-acetamide]",180

# Now from value to molecule:
row,IC50 [nM],Compound
1,250,"COc1ccc(Cn2ncc(NC(=O)Cc3ccc(C4(C(F)(F)F)CC4)cc3)n2)cc1F [Example 124, N-[2-(3-Fluoro-4-methoxy-benzyl)-2H-[1,2,3]triazol-4-yl]-2-[4-(1-trifluoromethyl-cyclopropyl)-phenyl]-acetamide]"
2,47,"COc1ccc(Cn2ncc(NC(=O)Cc3ccc(N4CCC(F)(F)C4)nc3)n2)cc1F [Example 126, 2-[6-(3,3-Difluoro-pyrrolidin-1-yl)-pyridin-3-yl]-N-[2-(3-fluoro-4-methoxy-benzyl)-2H-[1,2,3]triazol-4-yl]-acetamide]"
3,110,"COc1ccc(Cn2ncc(NC(=O)Cc3ccc(C4(F)COC4)cc3)n2)cc1F [Example 127, N-[2-(3-Fluoro-4-methoxy-benzyl)-2H-[1,2,3]triazol-4-yl]-2-[4-(3-fluoro-oxetan-3-yl)-phenyl]-acetamide]"
4,150,"CCn1ncc2cc(CC(=O)Nc3cnn(Cc4ccc(OC)c(F)c4)n3)ccc21 [Example 128, 2-(1-Ethyl-1H-indazol-5-yl)-N-[2-(3-fluoro-4-methoxy-benzyl)-2H-[1,2,3]triazol-4-yl]-acetamide]"
5,48,"COc1ccc(Cn2ncc(NC(=O)Cc3ccc4c(c3)c(C)cn4C)n2)cc1F [Example 129, 2-(1,3-Dimethyl-1H-indol-5-yl)-N-[2-(3-fluoro-4-methoxy-benzyl)-2H-[1,2,3]triazol-4-yl]-acetamide]"
6,62,"COc1ccc(Cn2ncc(NC(=O)Cc3ccc(C(C)(C)C)cc3)n2)cc1F [Example 130, 2-(4-tert-Butyl-phenyl)-N-[2-(3-fluoro-4-methoxy-benzyl)-2H-[1,2,3]triazol-4-yl]-acetamide]"
7,210,"N#Cc1ccc(Cn2ncc(NC(=O)Cc3ccc(OCC4COC4)cc3)n2)cc1F [Example 131, N-[2-(4-Cyano-3-fluoro-benzyl)-2H-[1,2,3]triazol-4-yl]-2-[4-(oxetan-3-ylmethoxy)-phenyl]-acetamide]"
8,180,"Cn1ncc2ccc(CC(=O)Nc3cnn(Cc4ccc(C#N)c(F)c4)n3)cc21 [Example 132, N-[2-(4-Cyano-3-fluoro-benzyl)-2H-[1,2,3]triazol-4-yl]-2-(1-methyl-1H-indazol-6-yl)-acetamide]"
